Inconclusive results and toxic doses are left out. The calls were made as follows: active = survival T/C of 150% or more; inactive = T/C below 125% in these data.
Test system: CD2F1 mice, L1210 leukemia ip, survival T/C
Assay: NCI In Vivo Anticancer Drug Screen. Data for tumor model L1210 Leukemia (intraperitoneal) in CD2F1 (CDF1) mice
Settings: endpoint: mean survival time, higher = longer survival
In short: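 Compound-dosed mice with transplantable tumor versus matched vehicle controls; endpoint ratio T/C reported.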

[1] = dose: 100.0 mg/kg/injection, schedule: Q04DX002 (ip), vehicle: saline with Tween-80
[2] = dose: 200.0 mg/kg/injection, schedule: Q04DX002 (ip), vehicle: saline with Tween-80
[3] = dose: 400.0 mg/kg/injection, schedule: Q04DX002 (ip), vehicle: saline with Tween-80

Measured: T/C

CNC(=S)SCCC(=O)O
inactive: [1] 113 % of control | [2] 102 % of control | [3] 102 % of control

c1ccc(-c2nc(/N=N/c3nc(-c4ccccc4)c(-c4ccccc4)[nH]3)[nH]c2-c2ccccc2)cc1
inactive: dose: 100.0 mg/kg/injection, schedule: Q04DX002 (ip), vehicle: Klucel (hydroxypropylcellulose) (HPC) 96 % of control | dose: 200.0 mg/kg/injection, schedule: Q04DX002 (ip), vehicle: Klucel (hydroxypropylcellulose) (HPC) 96 % of control | dose: 400.0 mg/kg/injection, schedule: Q04DX002 (ip), vehicle: Klucel (hydroxypropylcellulose) (HPC) 100 % of control

c1cnc2c(c1)Nc1cc3ccccc3cc1N2
inactive: dose: 100.0 mg/kg/injection, schedule: Q04DX002 (ip), vehicle: saline + alcohol 100 % of control | dose: 200.0 mg/kg/injection, schedule: Q04DX002 (ip), vehicle: saline + alcohol 89 % of control | dose: 400.0 mg/kg/injection, schedule: Q04DX002 (ip), vehicle: saline + alcohol 89 % of control

O=[N+]([O-])c1ccc(C2Nc3cc(Cl)c(Cl)cc3S(=O)(=O)N2O)cc1 (configuration not stated)
inactive: dose: 100.0 mg/kg/injection, schedule: Q01DX001 (ip), vehicle: saline with Tween-80 97 % of control | [1] 107 % of control | dose: 200.0 mg/kg/injection, schedule: Q01DX001 (ip), vehicle: saline with Tween-80 96 % of control | [2] 107 % of control | dose: 400.0 mg/kg/injection, schedule: Q01DX001 (ip), vehicle: saline with Tween-80 96 % of control | [3] 103 % of control

COC1OC(CSC#N)C2OC(C)(C)OC12 (configuration not stated)
inactive: dose: 5.0 mg/kg/injection, schedule: Q01DX001 (ip), vehicle: saline 97 % of control | dose: 10.0 mg/kg/injection, schedule: Q01DX001 (ip), vehicle: saline 101 % of control | dose: 20.0 mg/kg/injection, schedule: Q01DX001 (ip), vehicle: saline 101 % of control | dose: 40.0 mg/kg/injection, schedule: Q01DX001 (ip), vehicle: saline 101 % of control

O=C(O)/C=C/C(=O)Nc1ccccc1[N+](=O)[O-]
inactive: dose: 50.0 mg/kg/injection, schedule: Q01DX009 (ip), vehicle: saline with Tween-80 102 % of control | dose: 100.0 mg/kg/injection, schedule: Q01DX009 (ip), vehicle: saline with Tween-80 104 % of control | dose: 200.0 mg/kg/injection, schedule: Q01DX009 (ip), vehicle: saline with Tween-80 94 % of control

— PubChem BioAssay AID256 (DTP/NCI, 2004)
